Assay results reported in patent publication US8143411B2, “Substituted 6-phenylnicotinic acids and their use” (Bayer Animal Health GmbH, priority 2007, dated 2012).
Structures can show the parent of a compound that is named as a salt.

molecular target: T1, human PPARα receptor (Homo sapiens, UniProt Q07869); assay: Cellular transactivation assay (GAL4-PPARα chimera, luciferase reporter); format: cell-based; conditions: CHO cells stably expressing GAL4-PPARα chimera (human PPARα ligand binding domain) and luciferase reporter; 6 h stimulation
T1 construct: expressed in transfected cells
T1 sequence (Q07869 167-468): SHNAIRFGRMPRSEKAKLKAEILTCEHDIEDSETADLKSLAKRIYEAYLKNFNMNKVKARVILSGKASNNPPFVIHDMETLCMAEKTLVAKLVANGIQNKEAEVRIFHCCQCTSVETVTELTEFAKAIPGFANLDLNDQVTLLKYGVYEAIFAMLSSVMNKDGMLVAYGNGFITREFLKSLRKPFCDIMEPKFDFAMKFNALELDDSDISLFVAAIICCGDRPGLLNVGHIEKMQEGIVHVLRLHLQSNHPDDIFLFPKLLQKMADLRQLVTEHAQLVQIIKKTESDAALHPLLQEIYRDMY
Excerpt: A cellular assay is used to identify activators of the peroxisome proliferator-activated receptor alpha (PPAR-alpha).
Since mammalian cells contain different endogenous nuclear receptors which may complicate an unambiguous interpretation of the results, an established chimera system is used in which the ligand binding domain of the human PPARα receptor is fused to the DNA binding domain of the yeast transcription factor GAL4. The resulting GAL4-PPARα chimera is co-transfected and stably expressed in CHO cells having a reporter construct.
The GAL4-PPARα expression construct contains the ligand binding domain of PPARα (amino acids 167-468) which is PCR-amplified and cloned into the vector pcDNA3.1. This vector already contains the GAL4 DNA binding domain (amino acids 1-147) of the vector pFC2-dbd (Stratagene). The reporter construct, which contains five copies of the GAL4 binding site upstream of a thymidine kinase promoter, expresses firefly luciferase (Photinus pyralis) following activation and binding of GAL4-PPARα.
The day before the test, CHO (Chinese hamster ovary) cells which stably express the GAL4-PPARα chimera described above and the luciferase reporter gene construct are plated in medium (Optimem, GIBCO), 2% activated carbon-purified fetal calf serum (Hyclone), 1.35 mM sodium pyruvate (GIBCO), 0.2% sodium bicarbonate (GIBCO) with 1×10^3 cells in 96-well microtiter plates and kept in a cell incubator (96% atmospheric humidity, 5% v/v CO2, 37° C.). On the day of the test, the substances to be tested are taken up in the medium mentioned above but without added calf serum) and added to the cells. After a stimulation period of 6 h, the luciferase activity is measured using a video camera. The relative light units measured give, as a function of the substance concentration, a sigmoidal stimulation curve. The EC50 values are calculated using the computer programme GraphPad PRISM (Version 3.02).

Row | SMILES | EC50 [nM]
1 | O=C(O)c1c(C(F)(F)F)cc(-c2ccc(Cl)cc2)nc1NCC1CC1 [Example 22, 6-(4-Chlorophenyl)-2-[(cyclopropylmethyl)amino]-4-(trifluoromethyl)nicotinic acid] | 100
2 | CC(C)CCOc1nc(-c2cc(F)cc(F)c2)cc(C(F)(F)F)c1C(=O)O [Example 49, 6-(3,5-Difluorophenyl)-2-(3-methylbutoxy)-4-(trifluoromethyl)nicotinic acid] | 42
3 | CCc1nc(-c2ccc(Cl)cc2)cc(CC(C)C)c1C(=O)O [Example 51, 6-(4-Chlorophenyl)-2-ethyl-4-isobutyl-nicotinic acid] | 24
4 | CC(C)(C)CCOc1nc(-c2ccc(Br)cc2)cc(C(F)(F)F)c1C(=O)O [Example 67, 6-(4-Bromophenyl)-2-(3,3-dimethylbutoxy)-4-(trifluoromethyl)nicotinic acid] | 182
5 | CCOc1cc(-c2ccc(Cl)cc2)nc(C(C)C)c1C(=O)O [Example 71, 6-(4-Chlorophenyl)-4-ethoxy-2-(1-methylethyl)nicotinic acid sodium salt] | 86
6 | CC(C)Cc1nc(-c2ccc(Cl)cc2)cc(C(F)(F)F)c1C(=O)O [Example 77, 6-(4-Chlorophenyl)-2-isobutyl-4-(trifluoromethyl)nicotinic acid sodium salt] | 13

Results, then the compound that gave them:

Row | EC50 [nM] | SMILES
7 | 11 | Cc1ccc(-c2cc(C(F)(F)F)c(C(=O)O)c(CC(C)C)n2)cc1F [Example 2, 6-(3-Fluoro-4-methylphenyl)-2-isobutyl-4-(trifluoromethyl)nicotinic acid sodium salt]
8 | 83 | Cc1ccc(-c2cc(C(F)(F)F)c(C(=O)O)c(NC(C)C)n2)cc1F [Example 7, 6-(3-Fluoro-4-methylphenyl)-2-(isopropylamino)-4-(trifluoromethyl)nicotinic acid]
9 | 95 | CCOc1nc(-c2ccc(C)c(F)c2)cc(C(F)(F)F)c1C(=O)O [Example 34, 2-Ethoxy-6-(3-fluoro-4-methylphenyl)-4-(trifluoromethyl)nicotinic acid]
10 | 120 | Cc1ccc(-c2cc(C(F)(F)F)c(C(=O)O)c(OC(C)C3CCCCC3)n2)cc1F (centres unmarked) [Example 42, 2-(1-Cyclohexylethoxy)-6-(3-fluoro-4-methylphenyl)-4-(trifluoromethyl)nicotinic acid]
11 | 180 | COCCN(C)c1nc(-c2ccc(C)c(F)c2)cc(C(F)(F)F)c1C(=O)O [Example 47, 6-(3-Fluoro-4-methylphenyl)-2-[(2-methoxyethyl)(methyl)amino]-4-(trifluoromethyl)nicotinic acid hydrochloride]
